Patent US20200187499A1, “SUBSTITUTED BENZYL-4-AMINOPICOLINIC ESTERS AND PYRIMIDINO-4-CARBOXYLIC ESTERS, METHODS FOR THE PRODUCTION THEREOF, AND USE THEREOF AS HERBICIDES AND PLANT GROWTH REGULATORS” (Bayer CropScience Aktiengesellschaft, priority 2017, published 2020)

Assays:
Format in all cases: in vivo
ABUTH [1] = assay: Pre-emergence herbicidal action; settings: 320 g/ha, scored after 3 weeks
Text: (§1) Seeds of monocotyledonous and dicotyledonous weed plants and crop plants are laid out in sandy loam soil in wood-fiber pots and covered with soil. The compounds of the invention, formulated in the form of wettable powders (WP) or as emulsion concentrates (EC), are then applied to the surface of the covering soil in the form of an aqueous suspension or emulsion at a water application rate equating to 600 to 800 I/ha, with addition of 0.2% wetting agent. After the treatment, the pots are placed in a greenhouse and kept under good growth conditions for the trial plants. The damage to the test plants is scored visually after a test period of 3 weeks by comparison with untreated controls (herbicidal activity in percent (%): 100% activity=the plants have died, 0% activity=like control plants).
(§2) At the same time, inventive compounds leave Gramineae crops such as barley, wheat, rye, millet/sorghum, corn or rice virtually undamaged when applied pre-emergence, even at high active ingredient dosages. In addition, some substances are also harmless to dicotyledonous crops such as soya, cotton, oilseed rape, sugar beet or potatoes. […] The tables below illustrate, in an exemplary manner, the pre-emergence herbicidal action of the compounds according to the invention, the herbicidal activity being stated in percent.

ALOMY = assay: Pre-emergence herbicidal action; settings: 320 g/ha, scored after 3 weeks
Text: as §1, §2

AMARE [2] = assay: Pre-emergence herbicidal action; settings: 320 g/ha, scored after 3 weeks
Text: as §1, §2

ECHCG [3] = assay: Pre-emergence herbicidal action; settings: 320 g/ha, scored after 3 weeks
Text: as §1, §2

POLCO [4] = assay: Pre-emergence herbicidal action; settings: Table 2, pre-emergence (PE), 320 g/ha, scored after 3 weeks
Text: as §1, §2

SETVI [5] = assay: Pre-emergence herbicidal action; settings: 320 g/ha, scored after 3 weeks
Text: as §1, §2

VIOTR [6] = assay: Pre-emergence herbicidal action; settings: Table 2, pre-emergence (PE), 320 g/ha, scored after 3 weeks
Text: as §1, §2

ABUTH [7] = assay: Post-emergence herbicidal action; settings: 320 g/ha, assessed after about 3 weeks
Protocol: (§3) Seeds of monocotyledonous and dicotyledonous weed and crop plants are laid out in sandy loam soil in wood-fiber pots, covered with soil and cultivated in a greenhouse under good growth conditions. 2 to 3 weeks after sowing, the test plants are treated at the one-leaf stage. The compounds of the invention, formulated in the form of wettable powders (WP) or as emulsion concentrates (EC), are then sprayed onto the green parts of the plants in the form of an aqueous suspension or emulsion at a water application rate equating to 600 to 800 l/ha, with addition of 0.2% wetting agent. After the test plants have been left to stand in the greenhouse under optimal growth conditions for about 3 weeks, the action of the preparations is assessed visually in comparison to untreated controls (herbicidal action in percent (%): 100% activity=the plants have died, 0% activity=like control plants). […] At the same time, inventive compounds leave Gramineae crops such as barley, wheat, rye, millet/sorghum, corn or rice virtually undamaged when applied post-emergence, even at high active ingredient dosages. In addition, some substances are also harmless to dicotyledonous crops such as soya, cotton, oilseed rape, sugar beet or potatoes. Some of the compounds according to the invention have high selectivity and are therefore suitable for controlling unwanted vegetation in agricultural crops by the post-emergence method. The tables below illustrate, in an exemplary manner, the post-emergence herbicidal action of the compounds according to the invention, the herbicidal activity being stated in percent.

AMARE [8] = assay: Post-emergence herbicidal action; settings: 320 g/ha, assessed after about 3 weeks
Protocol: as §3

SETVI [9] = assay: Post-emergence herbicidal action; settings: 320 g/ha, assessed after about 3 weeks
Protocol: as §3

STEME = assay: Post-emergence herbicidal action; settings: 320 g/ha, assessed after about 3 weeks
Protocol: as §3

ECHCG [10] = assay: Post-emergence herbicidal action; settings: Table 5, post-emergence (PO), 320 g/ha, assessed after about 3 weeks
Protocol: as §3

PHBPU = assay: Post-emergence herbicidal action; settings: Table 5, post-emergence (PO), 320 g/ha, assessed after about 3 weeks
Protocol: as §3

POLCO [11] = assay: Post-emergence herbicidal action; settings: Table 5, post-emergence (PO), 320 g/ha, assessed after about 3 weeks
Protocol: as §3

VIOTR [12] = assay: Post-emergence herbicidal action; settings: Table 5, post-emergence (PO), 320 g/ha, assessed after about 3 weeks
Protocol: as §3

Row | Compound | Herbicidal action against ABUTH (ABUTH [1]; Table 2, pre-emergence (PE)) | Herbicidal action against ALOMY (ALOMY; Table 2, pre-emergence (PE)) | Herbicidal action against AMARE (AMARE [2]; Table 2, pre-emergence (PE)) | Herbicidal action against ECHCG (ECHCG [3]; Table 2, pre-emergence (PE)) | Herbicidal action against POLCO (POLCO [4]) | Herbicidal action against SETVI (SETVI [5]; Table 2, pre-emergence (PE)) | Herbicidal action against VIOTR (VIOTR [6]) | Herbicidal action against ABUTH (ABUTH [7]; Table 6, post-emergence (PO)) | Herbicidal action against AMARE (AMARE [8]; Table 6, post-emergence (PO)) | Herbicidal action against SETVI (SETVI [9]; Table 6, post-emergence (PO)) | Herbicidal action against STEME (STEME; Table 6, post-emergence (PO)) | Herbicidal action against ABUTH (ABUTH [1]; Table 3, pre-emergence (PE)) | Herbicidal action against ABUTH (ABUTH [7]; Table 5, post-emergence (PO)) | Herbicidal action against AMARE (AMARE [8]; Table 5, post-emergence (PO)) | Herbicidal action against ECHCG (ECHCG [10]) | Herbicidal action against PHBPU (PHBPU) | Herbicidal action against POLCO (POLCO [11]) | Herbicidal action against SETVI (SETVI [9]; Table 5, post-emergence (PO)) | Herbicidal action against STEME (STEME; Table 5, post-emergence (PO)) | Herbicidal action against VIOTR (VIOTR [12]) | further results
1 | Nc1cc(-c2ccc3occc3c2)nc(C(=O)OCc2cc(F)c(F)cc2F)c1Cl [Example I-06] | 20% | 80% | 100% | 100% | 100% | 90% | 60% | 100% | 100% | 90% | 100% |  |  |  |  |  |  |  |  |  | 
2 | COc1c(F)ccc(COC(=O)c2nc(-c3ccc4ccsc4c3)cc(N)c2Cl)c1F [Example I-08] | 0% | 60% | 100% | 100% | 100% | 90% | 20% | 100% | 100% | 70% | 100% |  |  |  |  |  |  |  |  |  | 
3 | Nc1cc(-c2ccc3ccsc3c2)nc(C(=O)OCc2ccc(F)cc2F)c1Cl [Example I-12] | 20% | 70% | 100% | 100% | 100% | 90% | 20% | 90% | 100% | 100% | 100% |  |  |  |  |  |  |  |  |  | 
4 | Nc1cc(-c2ccc3ccsc3c2)nc(C(=O)OCc2ccc(Cl)cc2)c1Cl [Example I-14] |  |  |  |  |  |  |  |  |  |  |  | 50% | 100% | 100% | 90% | 80% | 100% | 90% | 100% | 70% | Herbicidal action against ALOMY (ALOMY; Table 3, pre-emergence (PE)): 30%; Herbicidal action against AMARE (AMARE [2]; Table 3, pre-emergence (PE)): 100%; Herbicidal action against ECHCG (ECHCG [3]; Table 3, pre-emergence (PE)): 100%; Herbicidal action against SETVI (SETVI [5]; Table 3, pre-emergence (PE)): 80%
5 | Nc1cc(-c2ccc3sccc3c2)nc(C(=O)OCc2ccc(Cl)cc2)c1Cl [Example I-19] |  |  |  |  |  |  |  |  |  |  |  | 70% | 90% | 100% | 100% | 100% | 0% | 80% | 100% | 80% | Herbicidal action against ALOMY (ALOMY; Table 3, pre-emergence (PE)): 60%; Herbicidal action against AMARE (AMARE [2]; Table 3, pre-emergence (PE)): 100%; Herbicidal action against ECHCG (ECHCG [3]; Table 3, pre-emergence (PE)): 50%; Herbicidal action against SETVI (SETVI [5]; Table 3, pre-emergence (PE)): 50%
6 | Nc1cc(-c2ccc3occc3c2)nc(C(=O)OCc2c(F)cc(F)cc2F)c1Cl [Example I-20] | 50% | 70% | 100% | 100% | 100% | 100% | 40% | 100% | 100% | 100% | 100% |  |  |  |  |  |  |  |  |  | 
7 | Nc1c(Cl)c(C(=O)OCc2cccc(C(F)(F)F)c2)nc(Cl)c1-c1ccc2sccc2c1 [Example I-21, 3-(trifluoromethyl)benzyl 4-amino-6-chloro-(1-benzothiophen-5-yl)-3-chloropyridine-2-carboxylate] |  |  |  |  |  |  |  |  |  |  |  | 50% | 90% | 100% | 90% | 80% | 40% | 90% | 90% | 80% | Herbicidal action against ALOMY (ALOMY; Table 3, pre-emergence (PE)): 40%; Herbicidal action against AMARE (AMARE [2]; Table 3, pre-emergence (PE)): 60%; Herbicidal action against ECHCG (ECHCG [3]; Table 3, pre-emergence (PE)): 100%; Herbicidal action against SETVI (SETVI [5]; Table 3, pre-emergence (PE)): 80%
8 | COc1c(F)ccc(COC(=O)c2nc(-c3ccc4sccc4c3)cc(N)c2Cl)c1F [Example I-22] |  |  |  |  |  |  |  |  |  |  |  | 20% | 100% | 100% | 90% | 80% | 90% | 100% | 100% | 80% | Herbicidal action against ALOMY (ALOMY; Table 3, pre-emergence (PE)): 50%; Herbicidal action against AMARE (AMARE [2]; Table 3, pre-emergence (PE)): 100%; Herbicidal action against ECHCG (ECHCG [3]; Table 3, pre-emergence (PE)): 90%; Herbicidal action against SETVI (SETVI [5]; Table 3, pre-emergence (PE)): 90%
9 | Nc1c(F)c(-c2ccc3sccc3c2)nc(C(=O)OCc2ccc(F)cc2)c1Cl [Example I-29] |  |  |  |  |  |  |  |  |  |  |  | 70% | 80% | 100% | 90% | 40% | 90% | 80% | 80% | 50% | Herbicidal action against ALOMY (ALOMY; Table 3, pre-emergence (PE)): 80%; Herbicidal action against AMARE (AMARE [2]; Table 3, pre-emergence (PE)): 100%; Herbicidal action against ECHCG (ECHCG [3]; Table 3, pre-emergence (PE)): 80%; Herbicidal action against SETVI (SETVI [5]; Table 3, pre-emergence (PE)): 70%
10 | Nc1cc(-c2ccc3occc3c2)nc(C(=O)OCc2ccc(C(F)(F)F)cc2)c1Cl [Example I-36] | 90% | 50% | 100% | 90% | 90% | 90% | 0% | 100% | 100% | 80% | 100% |  |  |  |  |  |  |  |  |  | 
11 | Nc1cc(-c2ccc3ncsc3c2)nc(C(=O)OCc2cccc(F)c2)c1Cl [Example I-41] |  |  |  |  |  |  |  |  |  |  |  |  | 100% | 90% | 100% | 70% | 0% | 100% | 100% | 90% | Herbicidal action against AMARE (AMARE [2]; Table 4, pre-emergence (PE)): 50%; Herbicidal action against ECHCG (ECHCG [3]; Table 4, pre-emergence (PE)): 90%
12 | Nc1c(F)c(-c2ccc3ccsc3c2)nc(C(=O)OCc2ccc(F)cc2)c1Cl [Example I-53] |  |  |  |  |  |  |  |  |  |  |  |  | 80% | 100% | 90% | 0% | 80% | 90% | 100% | 10% | Herbicidal action against AMARE (AMARE [2]; Table 4, pre-emergence (PE)): 100%; Herbicidal action against ECHCG (ECHCG [3]; Table 4, pre-emergence (PE)): 70%
13 | Nc1c(F)c(-c2ccc3ccsc3c2)nc(C(=O)OCc2c(F)cc(F)cc2F)c1Cl [Example I-55] |  |  |  |  |  |  |  |  |  |  |  |  | 60% | 100% | 90% | 0% | 90% | 90% | 90% | 10% | Herbicidal action against AMARE (AMARE [2]; Table 4, pre-emergence (PE)): 100%; Herbicidal action against ECHCG (ECHCG [3]; Table 4, pre-emergence (PE)): 40%
